# According to article PMC8426237, “A first-in-human phase I study of TAS0728, an oral covalent binding inhibitor of HER2, in patients with advanced solid tumors with HER2 or HER3 aberrations” (Investigational New Drugs, 2021):
# Experiment: Phase I safety assessment: adverse events (CTCAE v5.0) in patients
# [1] = Dose Level 3: 200 mg BID (N = 7)
# [2] = Dose Level 3d: 150 mg BID (N = 6)
# [3] = all treated population, overall
# Description: A DLT was defined as a study treatment-related adverse event (TRAE), according to the Common Terminology Criteria for Adverse Events (CTCAE, Version 5.0), with qualifying criteria for certain DLTs (e.g., Grade ≥ 3 diarrhea, was included as a DLT only if lasting >48 h and unresponsive to intensive antidiarrheal medication).
# Patients were closely monitored for these potential toxicities during the current study. Safety assessments included recording of AEs and serious AEs (SAEs) from the time of signing the study informed consent form to 30 days after the last dose of study medication. Safety parameters including laboratory evaluations (hematology, coagulation, chemistry, and urinalysis), vital sign measurements and body weight, electrocardiogram (ECG) recordings, ECOG performance status, echocardiogram or multi-gated acquisition (MUGA), and physical examination were assessed at screening, during the study and at 30 days following the last dose. The use of concomitant medications was permitted and details for such medications were recorded.
smiles,measurement,setting,value
C=CC(=O)N1CCC[C@@H](n2nc(C(=O)Nc3ccc(CC(=O)N(C)C)c(C)c3C)c3c(N)ncnc32)C1 [TAS0728],"Dermatitis acneiform, ≥Grade 3",[1],0 n (%)
same,"Diarrhea, Grade 1",[1],5 (71.4) n (%)
same,"Diarrhea, Grade 2",[1],5 (71.4) n (%)
same,"Diarrhea, Grade 3",[1],3 (42.9) n (%)
same,"Diarrhea, Grade 4",[1],0 n (%)
same,"Diarrhea, Grade 5",[1],0 n (%)
same,"Diarrhea, Total",[1],6 (85.7) n (%)
same,"Diarrhea, ≥Grade 3",[1],3 (42.9) n (%)
same,"Dry skin, Grade 1",[1],2 (28.6) n (%)
same,"Dry skin, Grade 2",[1],0 n (%)
same,"Dry skin, Grade 3",[1],0 n (%)
same,"Dry skin, Grade 4",[1],0 n (%)
same,"Dry skin, Grade 5",[1],0 n (%)
same,"Dry skin, Total",[1],2 (28.6) n (%)
same,"Dry skin, ≥Grade 3",[1],0 n (%)
same,"Fatigue, Grade 1",[1],1 (14.3) n (%)
same,"Fatigue, Grade 2",[1],3 (42.9) n (%)
same,"Fatigue, Grade 3",[1],0 n (%)
same,"Fatigue, Grade 4",[1],0 n (%)
same,"Fatigue, Grade 5",[1],0 n (%)
same,"Fatigue, Total",[1],3 (42.9) n (%)
same,"Fatigue, ≥Grade 3",[1],0 n (%)
same,"Hypokalemia, Grade 1",[1],2 (28.6) n (%)
same,"Hypokalemia, Grade 2",[1],0 n (%)
same,"Hypokalemia, Grade 3",[1],0 n (%)
same,"Hypokalemia, Grade 4",[1],0 n (%)
same,"Hypokalemia, Grade 5",[1],0 n (%)
same,"Hypokalemia, Total",[1],2 (28.6) n (%)
same,"Hypokalemia, ≥Grade 3",[1],0 n (%)
same,"Nausea, Grade 1",[1],1 (14.3) n (%)
same,"Nausea, Grade 2",[1],2 (28.6) n (%)
same,"Nausea, Grade 3",[1],0 n (%)
same,"Nausea, Grade 4",[1],0 n (%)
same,"Nausea, Grade 5",[1],0 n (%)
same,"Nausea, Total",[1],2 (28.6) n (%)
same,"Nausea, ≥Grade 3",[1],0 n (%)
same,"Oedema peripheral, Grade 1",[1],2 (28.6) n (%)
same,"Oedema peripheral, Grade 2",[1],0 n (%)
same,"Oedema peripheral, Grade 3",[1],0 n (%)
same,"Oedema peripheral, Grade 4",[1],0 n (%)
same,"Oedema peripheral, Grade 5",[1],0 n (%)
same,"Oedema peripheral, Total",[1],2 (28.6) n (%)
same,"Oedema peripheral, ≥Grade 3",[1],0 n (%)
same,"Pyrexia, Grade 1",[1],2 (28.6) n (%)
same,"Pyrexia, Grade 2",[1],1 (14.3) n (%)
same,"Pyrexia, Grade 3",[1],0 n (%)
same,"Pyrexia, Grade 4",[1],0 n (%)
same,"Pyrexia, Grade 5",[1],0 n (%)
same,"Pyrexia, Total",[1],3 (42.9) n (%)
same,"Pyrexia, ≥Grade 3",[1],0 n (%)
same,"Vomiting, Grade 1",[1],1 (14.3) n (%)
same,"Vomiting, Grade 2",[1],1 (14.3) n (%)
same,"Vomiting, Grade 3",[1],0 n (%)
same,"Vomiting, Grade 4",[1],0 n (%)
same,"Vomiting, Grade 5",[1],0 n (%)
same,"Vomiting, Total",[1],2 (28.6) n (%)
same,"Vomiting, ≥Grade 3",[1],0 n (%)
same,"Adverse events experienced in ≥10% patients, Grade 1",[2],5 (83.3) n (%)
same,"Adverse events experienced in ≥10% patients, Grade 2",[2],5 (83.3) n (%)
same,"Adverse events experienced in ≥10% patients, Grade 3",[2],3 (50.0) n (%)
same,"Adverse events experienced in ≥10% patients, Grade 4",[2],0 n (%)
same,"Adverse events experienced in ≥10% patients, Grade 5",[2],1 (16.7) n (%)
same,"Adverse events experienced in ≥10% patients, Total",[2],6 (100) n (%)
same,"Adverse events experienced in ≥10% patients, ≥Grade 3",[2],3 (50.0) n (%)
same,"Back pain, Grade 1",[2],1 (16.7) n (%)
same,"Back pain, Grade 2",[2],1 (16.7) n (%)
same,"Back pain, Grade 3",[2],0 n (%)
same,"Back pain, Grade 4",[2],0 n (%)
same,"Back pain, Grade 5",[2],0 n (%)
same,"Back pain, Total",[2],2 (33.3) n (%)
same,"Back pain, ≥Grade 3",[2],0 n (%)
same,"Diarrhea, Grade 1",[2],2 (33.3) n (%)
same,"Diarrhea, Grade 2",[2],1 (16.7) n (%)
same,"Diarrhea, Grade 3",[2],2 (33.3) n (%)
same,"Diarrhea, Grade 4",[2],0 n (%)
same,"Diarrhea, Grade 5",[2],0 n (%)
same,"Diarrhea, Total",[2],4 (66.7) n (%)
same,"Diarrhea, ≥Grade 3",[2],2 (33.3) n (%)
same,"Pyrexia, Grade 1",[2],0 n (%)
same,"Pyrexia, Grade 2",[2],2 (33.3) n (%)
same,"Pyrexia, Grade 3",[2],0 n (%)
same,"Pyrexia, Grade 4",[2],0 n (%)
same,"Pyrexia, Grade 5",[2],0 n (%)
same,"Pyrexia, Total",[2],2 (33.3) n (%)
same,"Pyrexia, ≥Grade 3",[2],0 n (%)
same,"Vomiting, Grade 1",[2],2 (33.3) n (%)
same,"Vomiting, Grade 2",[2],0 n (%)
same,"Vomiting, Grade 3",[2],0 n (%)
same,"Vomiting, Grade 4",[2],0 n (%)
same,"Vomiting, Grade 5",[2],0 n (%)
same,"Vomiting, Total",[2],2 (33.3) n (%)
same,"Vomiting, ≥Grade 3",[2],0 n (%)
same,Patients with AEs,Overall (N = 19),"19 (100) n, (%)"
same,Patients with AEs that had an outcome of death,Overall (N = 19),"1 (5.3) n, (%)"
same,Patients with AEs that led to study treatment discontinuation,Overall (N = 19),"3 (15.8) n, (%)"
same,Patients with Grade ≥ 3 AEs,Overall (N = 19),"9 (47.4) n, (%)"
same,Patients with SAEs,Overall (N = 19),"8 (42.1) n, (%)"
same,Patients with treatment-related AEs,Overall (N = 19),"17 (89.5) n, (%)"
same,Patients with treatment-related and Grade ≥ 3 AEs,Overall (N = 19),"6 (31.6) n, (%)"
same,Patients who died during the study,all dose levels,4
same,Patients who experienced an AE during the study,"all treated population, all 19 patients",100.0%
same,TRAE incidence: diarrhea,[3],78.9%
same,TRAE incidence: fatigue,[3],21.1%
same,TRAE incidence: nausea,[3],21.1%
same,TRAE incidence: vomiting,[3],21.1%
same,TRAEs considered ≥Grade 3 in severity,[3],31.6%
same,≥Grade 3 TRAE incidence: diarrhea,[3],26.3%
same,Patients with an SAE considered related to study drug,"all treated population, three of 19, diarrhea (200- and 150-mg BID), cardiac arrest (150 mg BID)",15.8%
same,Changes from baseline in clinical laboratory results and standard 12-lead ECG parameters,during the study,No clinically meaningful changes from baseline
same,Patients who experienced an AE that led to study drug discontinuation,"in total, all dose levels",4
same,"Deaths >30 days after the last dose of study treatment, all due to clinical progression",of 4 deaths,3
same,Patients who experienced ≥1 SAE,"overall population, 8 of 19",42.1%
same,Patients with an SAE Grade 3 or higher in severity,"overall population, five patients",26.3%
same,SAE incidence: acute kidney injury,"overall, 1 patient",5.3%
same,SAE incidence: back pain,"overall, 1 patient",5.3%
same,SAE incidence: cardiac arrest,"overall, 1 patient",5.3%
same,SAE incidence: cellulitis,"overall, 1 patient",5.3%
same,SAE incidence: clostridium colitis,"overall, 1 patient",5.3%
same,SAE incidence: dysphagia,"overall, 1 patient",5.3%
same,≥Grade 3 TRAE incidence: acute kidney injury,"overall, 1 patient",5.3%
same,≥Grade 3 TRAE incidence: cardiac arrest,"overall, 1 patient",5.3%
same,≥Grade 3 TRAE incidence: proteinuria,"overall, 1 patient",5.3%
same,SAE incidence: diarrhea,"overall, 2 patients",10.5%
same,SAE incidence: pyrexia,"overall, 4 patients (2 each at 200 mg and 150 mg BID)",21.1%
same,Patients with diarrhea at a severity ≥Grade 3,reduced dose of 150 mg BID,2
same,Patients with diarrhea,"reduced dose of 150 mg BID, 4 of 6",66.7%
